Assay results: publication PMC12592502, “Unraveling the mechanisms behind the enhanced efficacy of β-lactam-based sideromycins” (Communications Biology, 2025)
Values after ≈ are worked out from the molar mass of the structure shown. Like-named read-outs stand apart in the source and are kept apart here.

Legend:
E. coli ATCC 25922 = test: MIC, broth microdilution (CLSI); assay type: cell-based, Escherichia coli
Protocol: (§1) All bacterial strains (see description and sources Table S1) were stored at −80 °C, and grown on tryptone soya agar (TSA) at 35 °C. The iron-deprived (ID)-MHBCA (cation-adjusted Muller-Hinton Broth, Becton Dickinson, Mississauga, ON, Canada) medium was prepared as reported by refs. [21],[50]. Briefly, MHBCA was treated with 10% Chelex® 50-100 mesh (Sigma) and stirred for 6 h at room temperature. The resin was removed by filtration. Divalent Ca^2+ (CaCl2), Mg^2+ (MgCl2), and Zn^2+(ZnSO4), were then added in the iron-depleted medium at 22, 12, and 1 μg/ml respectively. Finally, the pH was adjusted to 7.3, and the medium was sterilized with a 0.2-μm filter. Regular MHBCA (i.e., not treated with Chelex®) was used to compare the inhibitory activity of conjugates in iron-sufficient conditions.
(§2) Minimal inhibitory concentrations (MICs) were performed using a broth microdilution technique according to the Clinical and Laboratory Standards Institute (CLSI) guidelines. MICs were determined in MHBCA and in ID-MHBCA. To check the impact of β-lactamases, MICs in the presence of a β-lactamase inhibitor were also determined. The inhibitor was homogenized at 2X the final concentration and added to the bacterial inoculum just before distributing cells into the wells containing the drug dilutions. The final concentration of each inhibitor was 4 μg/mL for clavulanic acid (tested against K. pneumoniae) and 200 μg/mL for 3-aminophenylboronic acid (tested against P. aeruginosa and A. baumannii).

PBP2 [1] = biological target: PBP2 (Klebsiella pneumoniae, UniProt A6T696); test: Membrane PBP binding assay, competition with Bocillin FL; parameters: species or system K. pneumoniae ATCC 13883; conditions: read-out: IC50 PBP2; K. pneumoniae ATCC 13883 membranes
Protocol: (§3) Membrane extracts containing PBPs were obtained as described above. Briefly, all species were grown in 1 L of TSB until the OD600 reached 0.9. The washed pellet was incubated with lysozyme (400 μg/mL), DNase (10 μg/mL) RNase(10 μg/mL) and anti-protease cocktail (200 mg/20 mL). Lysis was done with a French press (20,000 psi) and membrane protein were pelleted by ultracentrifugation steps (100,000 × g). The pellet was suspended in a minimal volume (300–500 μL) of KP 0.05 M buffer at pH 7. The protein concentration in the membrane preparations was determined with the Micro BCA TM Protein Assay Kit (Thermo Fisher Scientific, Rockford, IL) using bovine serum albumin as a standard.
(§4) The PBP binding assay was done as described previously[36],[56],[57]. For each antibiotic concentration tested, a quantity of 25 to 40 μg of membrane preparation was used as the source of PBPs, depending on the species. For the purified PaPBP3, 150 ng was used in the assay. First, increasing concentrations of the test antibiotic was added to the membrane or purified PaPBP3 preparations and incubated for 10 min at 30 °C. The reporter molecule Bocillin FL was then added at 12.5 μM for the membrane PBPs preparations and at 500 nM for the pure PaPBP3 samples for an additional 20 min at 30 °C. All reactions were stopped with the addition of the Laemmli-loading buffer (Bio-Rad) containing fresh β-mercaptoethanol (Sigma). All reactions were then heated at 100°C for 3 min before migration on SDS-polyacrylamide discontinuous gel system (7.5% stacking and 10% separating). Control samples without Bocillin FL were also included to highlight autofluorescent proteins that are not PBPs.
(§5) To be able to visualize labeled PBPs after electrophoresis, gels were rinsed in water and fixed in a solution of 50% methanol and 7% acetic acid for 30 min. The fluorescent images of gels were obtained with the Typhoon FLA 9500 instrument (GE-Healthcare Bio-Sciences Inc., Baie-d’Urfé, QC, CA) using a 473 nm excitation wavelength. To obtain quantifiable data, the software Quantity One 1D analysis was used (version 4.6.6; Bio-Rad Laboratories, Richmond, CA). The volume (intensity × constant area) of each PBP was measured. […] All IC50 data were obtained from at least two independent PBP binding assays using two different sets of compound concentrations using a linear regression. The PBP profiles were confirmed, and the PBP numbering were determined using published data and individual molecular weights. […] For example, amdinocillin (Sigma) was used for PBP2 identification. […] The IC50 for PBP 2 of P. aeruginosa was measured by including the SDS-PAGE comigrating autofluorescent protein in the background, as done previously.

E. coli ΔacrAB = test: MIC, efflux pump mutant; assay type: cell-based, Escherichia coli; conditions: Escherichia coli
Protocol: as §2

E. coli Δfiu = test: MIC, Keio mutant; assay type: cell-based, Escherichia coli; conditions: Escherichia coli
Protocol: as §1, §2

E. coli ΔcirA = test: MIC, Keio mutant; assay type: cell-based, Escherichia coli
Protocol: as §1, §2

E. coli ΔfhuA = test: MIC, Keio mutant; assay type: cell-based, Escherichia coli; conditions: Escherichia coli
Protocol: as §1, §2

PBP3 = biological target: T1, PBP3 (Escherichia coli, UniProt P0AD68); test: Membrane PBP binding assay, competition with Bocillin FL; parameters: species or system E. coli MC4100
T1 construct: using bacterial membranes as the source of PBPs; endogenous in cells; host or cells: E. coli MC4100 membrane preparation
Protocol: as §3, §4, §5

PBP2 [2] = biological target: T2, PBP2 (Escherichia coli, UniProt P0AD65); test: as above; parameters: species or system E. coli MC4100; conditions: read-out: IC50 PBP2; E. coli MC4100 membranes
T2 construct: using bacterial membranes as the source of PBPs; endogenous in cells; host or cells: E. coli MC4100 membrane preparation
Protocol: as §3, §4, §5

PBP4 = biological target: T3, PBP4 (Escherichia coli, UniProt P24228); test: as above; parameters: species or system E. coli MC4100; conditions: read-out: IC50 PBP4; E. coli MC4100 membranes
T3 construct: using bacterial membranes as the source of PBPs; endogenous in cells; host or cells: E. coli MC4100 membrane preparation
Protocol: as §3, §4, §5

PBP1a/1b = test: as above; parameters: species or system E. coli MC4100
Protocol: as §3, §4, §5

P. aeruginosa ATCC 27853 = test: MIC, broth microdilution (CLSI); assay type: cell-based, Pseudomonas aeruginosa
Protocol: as §1, §2

For `O=C(CCC(=O)N(CCCCNC(=O)c1cccc(O)c1O)CCCNC(=O)c1cccc(O)c1O)NCCCCCN(O)C(=O)CCCC(=O)NC(C(=O)NC1C(=O)N2C(C(=O)O)=C(Cl)CSC12)c1ccccc1` (stereo not shown) [MCEF, mixed ligand bis-catechol-mono-hydroxamate-cefaclor], the MIC (E. coli ATCC 25922; Escherichia coli, ATCC25922, ID-MHBCA + 1 µg/mL supplemental iron) was 25 µM, the MIC (E. coli ATCC 25922; Escherichia coli, ATCC25922, MHBCA (+)) was 6.3 to 25 µM (≈ 6.81 to 27 µg/mL) and the MIC (E. coli ATCC 25922; Escherichia coli, ATCC25922, iron-deprived ID-MHBCA (−), 0 µg/mL supplemental iron) was over 200 µM. The “MIC ratio unconjugated β-lactam/conjugate” value (E. coli ATCC 25922; ID-MHBCA) was under 0.016, the MIC (E. coli ATCC 25922; iron-deprived ID-MHBCA (−), 0 µg/mL supplemental iron) was over 200 µM and the IC50 (PBP2 [1]) was 16.8 ± 0.3 µM. For the same compound, the MIC (E. coli ΔacrAB) was 3.1 µM (≈ 3.35 µg/mL), the MIC (E. coli Δfiu; ID-MHBCA) was over 200 µM and the MIC (E. coli Δfiu; MHBCA) was 100 µM (≈ 108 µg/mL). For the same compound, the MIC (E. coli ΔcirA; Escherichia coli, ID-MHBCA) was over 200 µM, the MIC (E. coli ΔcirA; Escherichia coli, MHBCA) was over 200 µM and the MIC (E. coli ΔcirA; MHBCA) was over 200 µM. For the same compound, the MIC (E. coli ΔfhuA; ID-MHBCA) was over 200 µM, the MIC (E. coli ΔfhuA; MHBCA) was 13 µM (≈ 14.1 µg/mL) and the “IC50 value ratio βL/SID-βL, PBP3” value (PBP3; E. coli MC4100) was 49. The IC50 (PBP3; read-out: IC50 PBP3, E. coli MC4100 membranes) was 0.32 ± 0.01 µM, the IC50 (PBP2 [2]) was 29.3 ± 2.3 µM and the IC50 (PBP4) was 8.6 ± 1.3 µM. For the same compound, the “IC50 value ratio βL/SID-βL, PBP1a/1b” value (PBP1a/1b; E. coli MC4100) was 227, the IC50 (PBP1a/1b; E. coli MC4100 membranes, 12.5 μM Bocillin FL) was 0.15 ± 0.01 µM and the “MIC ratio unconjugated β-lactam/conjugate” value (P. aeruginosa ATCC 27853; ID-MHBCA) was “No activity”. For the same compound, the MIC (P. aeruginosa ATCC 27853; ID-MHBCA (−), 0 µg/mL supplemental iron, read-out: MIC) was over 200 µM, the “MIC ratio unconjugated β-lactam/conjugate” value (P. aeruginosa ATCC 27853; MHBCA) was “No activity” and the MIC (P. aeruginosa ATCC 27853; MHBCA (+), no inhibitor, listed as Mix-CEF, read-out: MIC) was over 200 µM. The MIC (P. aeruginosa ATCC 27853; MHBCA (+), no inhibitor, read-out: MIC) was over 200 µM, the “MIC in combination with PAβN” value (P. aeruginosa ATCC 27853; MHBCA, + 25 µg/mL PAβN) was over 200 µM and the MIC (P. aeruginosa ATCC 27853; Pseudomonas aeruginosa, ATCC27853, ID-MHBCA (−), 0 µg/mL supplemental iron, read-out: MIC) was over 200 µM. It also gave an MIC (P. aeruginosa ATCC 27853; Pseudomonas aeruginosa, ATCC27853, ID-MHBCA + 1 µg/mL supplemental iron, read-out: MIC) of over 200 µM, an MIC (P. aeruginosa ATCC 27853; Pseudomonas aeruginosa, ATCC27853, ID-MHBCA, + 200 μg/mL APB, read-out: MIC with β-lactamase inhibitor (βI)) of over 200 µM and an MIC (P. aeruginosa ATCC 27853; Pseudomonas aeruginosa, ATCC27853, MHBCA (+), no inhibitor, read-out: MIC) of over 200 µM. It also gave an MIC (P. aeruginosa ATCC 27853; Pseudomonas aeruginosa, ATCC27853, MHBCA, + 200 μg/mL 3-aminophenylboronic acid (APB), read-out: MIC with β-lactamase inhibitor (βI)) of over 200 µM.
